Here are results for 76 compounds from patent US6924251B1, “Substituted benzoylcyclohexandiones” (Bayer Aktiengesellschaft, priority 1998, dated 2005).

Assay in one data set: not given
Conditions: not given
Compound `COC(=O)c1ccc(Cl)c(Cn2nc(C(F)(F)F)n(C)c2=O)c1Cl` [IV-2, 4-methyl-5-trifluoromethyl-2-(2,6-dichloro-3-methoxycarbonyl-benzyl)-2,4-dihydro-3H-1.2.4-triazol-3-one] showed a melting point of 109 °C.

The nature of a further data set: logP determination by HPLC (reversed-phase C18), EEC Directive 79/831 Annex V.A8. The note with it: Table 3, compounds of formula (IV); labelled a): acidic range, 0.1% aqueous phosphoric acid, acetonitrile, linear gradient 10% to 90% acetonitrile; 43° C.
Turning to `COC(=O)c1ccc(C(F)(F)F)cc1Cn1nc(SC)n(C)c1=O` [IV-118], the logP entry was “logP = 2.65^a)”.

For the compound `CCOn1c(CC)nn(Cc2c(Cl)ccc(C(=O)OC)c2Cl)c1=O` [IV-22], the logP entry was “m.p.: 85 °C logP = 2.58^a)”.

As for `CCOc1nn(Cc2c(Cl)ccc(C(=O)OC)c2Cl)c(=O)n1C1CC1` [IV-16], the logP entry is “m.p.: 99 °C logP = 2.73^a)”.

As to `CCOC(=O)c1ccc(S(C)(=O)=O)cc1Cn1nc(SC)n(C)c1=O` [IV-89], the logP result is “logP = 1.82^a)”.

Turning to `CCOC(=O)c1ccc(C(F)(F)F)cc1Cn1nc(SC)n(C)c1=O` [IV-49], the logP result was “logP = 3.02^a)”.

Turning to `CCOC(=O)c1ccc(C(F)(F)F)cc1Cn1nc(CC)n(OCC)c1=O` [IV-48], the logP result is on record as “logP = 3.38^a)”.

In the case of `CCOC(=O)c1ccc(F)cc1Cn1nc(OCC)n(C2CC2)c1=O` [IV-98], the logP result is “logP = 2.89^a)”.

Turning to `COC(=O)c1ccc(S(C)(=O)=O)cc1Cn1nc(SC)n(C)c1=O` [IV-114], the logP entry was “logP = 1.53^a)”.

As to `CCOC(=O)c1ccc(Br)cc1Cn1nc(N(C)C)n(C)c1=O` [IV-82], the logP result is listed as “logP = 2.60^a)”.

`CCOC(=O)c1ccc(F)cc1Cn1nc(N(C)C)n(C)c1=O` [IV-94]: the logP result is “logP = 2.21^a)”.

Take `CCOC(=O)c1ccc([N+](=O)[O-])cc1Cn1nc(OCC)n(C2CC2)c1=O` [IV-45]: the logP entry is reported as “logP = 2.42^a)”.

On to `CCOC(=O)c1ccc(Br)cc1Cn1nc(CC)n(OCC)c1=O` [IV-34], for which the logP entry is given as “logP = 3.24^a)”.

As to `CCOC(=O)c1ccc(Br)cc1Cn1nc(C(F)(F)F)n(C)c1=O` [IV-35], the logP result is “logP = 3.40^a)”.

Turning to `CCOC(=O)c1ccc(Cl)cc1Cn1nc(C(F)(F)F)n(C)c1=O` [IV-43], the logP entry is given as “logP = 3.31^a)”.

As to `CCOC(=O)c1ccc(Cl)cc1Cn1nc(OCC)n(C2CC2)c1=O` [IV-42], the logP result was “logP = 3.23^a)”.

Turning to `CCOC(=O)c1ccc(S(C)(=O)=O)cc1CN1C(=O)CCC1=O` [IV-33], the logP result is listed as “logP = 1.53^a)”.

As for `COC(=O)c1ccc(Cl)c(Cn2nc(C3CC3)n(C3CC3)c2=O)c1Cl` [IV-5], the logP result is “m.p.: 127 °C logP = 2.55^a)”.

With `CCCOc1nn(Cc2cc(Br)ccc2C(=O)OCC)c(=O)n1C` [IV-66], the logP result is reported as “logP = 3.38^a)”.

Take `CCOC(=O)c1ccc(F)cc1Cn1nc(COC)n(C)c1=O` [IV-96]: the logP result is on record as “logP = 2.05^a)”.

Regarding `CCOc1nn(Cc2cc(S(C)(=O)=O)ccc2C(=O)OC)c(=O)n1C` [IV-115], the logP result is reported as “logP = 1.59^a)”.

Take `CCOC(=O)c1ccc(C(F)(F)F)cc1Cn1cc(C(F)(F)F)c(=O)[nH]c1=O` [IV-90]: the logP entry is given as “logP = 2.93^a)”.

In the case of `COC(=O)c1ccc(Cl)c(Cn2nc(OC)n(C3CC3)c2=O)c1Cl` [IV-15], the logP entry is “m.p.: 97 °C logP = 2.36^a)”.

Turning to `COC(=O)c1ccc(Cl)c(Cn2nc(OCC(F)(F)F)n(C3CC3)c2=O)c1Cl` [IV-18], the logP entry is “m.p.: 102 °C logP = 3.05^a)”.

With `CCOC(=O)c1ccc(C(F)(F)F)cc1CN1C(=O)c2ccccc2C1=O` [IV-87], the logP entry is recorded as “logP = 3.80^a)”.

As for `CCOC(=O)c1ccc(Cl)cc1Cn1nc(CC)n(OCC)c1=O` [IV-44], the logP result is given as “logP = 3.14^a)”.

`COC(=O)c1ccc(Cl)c(Cn2nc(N(C)C)n(C)c2=O)c1Cl` [IV-12]: the logP result is “m.p.: 126 °C logP = 2.11^a)”.

On to `COC(=O)c1ccc(Cl)c(Cn2nc(OC(C)C)n(C)c2=O)c1Cl` [IV-7], for which the logP result is “m.p.: 68 °C logP = 2.73^a)”.

On to `CCOC(=O)c1ccc(Br)cc1Cn1nc(OC(C)C)n(C)c1=O` [IV-65], for which the logP entry is “logP = 3.34^a)”.

For `COC(=O)c1ccc(Cl)c(CN2C(=O)c3ccccc3S2(=O)=O)c1Cl` [IV-25], the logP entry is “m.p.: 157 °C logP = 2.94^a)”.

Take `CCOC(=O)c1ccc(C(F)(F)F)cc1CN1N=C(C)C(C)(C)C1=O` [IV-99]: the logP entry is “logP = 2.91^a)”.

With `COC(=O)c1ccc(Cl)c(Cn2nc(OCC(F)(F)F)n(C)c2=O)c1Cl` [IV-8], the logP entry was “m.p.: 129 °C logP = 2.72^a)”.

With `COC(=O)c1ccc(Cl)c(Cn2nc(SC)n(C)c2=O)c1Cl` [IV-3], the logP result is “m.p.: 229 °C logP = 2.27^a)”.

Regarding `COC(=O)c1ccc(Cl)c(Cn2nc(OC(C)C)n(C3CC3)c2=O)c1Cl` [IV-17], the logP result is “m.p.: 56 °C logP = 3.08^a)”.

With `CCOC(=O)c1ccc(Br)cc1Cn1nc(SC)n(C)c1=O` [IV-80], the logP result is “logP = 2.86^a)”.

As for `COC(=O)c1ccc(Cl)c(Cn2nc3n(c2=O)CCCC3)c1Cl` [IV-14], the logP result was “m.p.: 178 °C logP = 1.86^a)”.

For `CCCOc1nn(Cc2cc(C(F)(F)F)ccc2C(=O)OCC)c(=O)n1C` [IV-71], the logP entry is listed as “logP = 3.54^a)”.

As for `CCOC(=O)c1ccc(Cl)cc1Cn1nc(SC)n(C)c1=O` [IV-81], the logP entry is reported as “logP = 2.83^a)”.

`COC(=O)c1ccc(Cl)c(CN2CCCN(C)C2=O)c1Cl` [IV-24]: the logP result is on record as “logP = 2.07^a)”.

As for `CCOC(=O)c1ccc(C(F)(F)F)cc1Cn1nc(COC)n(C2CC2)c1=O` [IV-77], the logP result is reported as “logP = 2.88^a)”.

As for `CCOC(=O)c1ccc(Br)cc1Cn1nc(OCC)n(C)c1=O` [IV-58], the logP result was “logP = 2.95^a)”.

As for `CCOC(=O)c1ccc(Br)cc1CN1C(=O)CCC1=O` [IV-60], the logP entry was “logP = 2.44^a)”.

In the case of `CCOC(=O)c1ccc(C(F)(F)F)cc1CN1C(=O)c2ccccc2S1(=O)=O` [IV-86], the logP result is “logP = 3.67^a)”.

Turning to `CCOc1nn(Cc2cc(I)ccc2C(=O)OC)c(=O)n1C` [IV-116], the logP result is “logP = 2.68^a)”.

`CCOC(=O)c1ccc(C(F)(F)F)cc1Cn1nc(Br)n(C2CC2)c1=O` [IV-79]: the logP result is reported as “logP = 3.35^a)”.

Consider `CCOC(=O)c1ccc([N+](=O)[O-])cc1Cn1nc(SC)n(C)c1=O` [IV-46], for which the logP entry is given as “logP = 2.82^a)”.

Turning to `CCOC(=O)c1ccc(C(F)(F)F)cc1Cn1c(=O)n(C)c(=O)n1C` [IV-113], the logP entry is on record as “logP = 2.58^a)”.

For `CCOC(=O)c1ccc(C(F)(F)F)cc1Cn1nc(C)oc1=O` [IV-92], the logP entry was “logP = 3.04^a)”.

`COC(=O)c1ccc(Cl)c(Cn2nc(C)n(C3CC3)c2=O)c1Cl` [IV-20]: the logP result is “m.p.: 135 °C logP = 1.97^a)”.

Turning to `COC(=O)c1ccc(Cl)c(Cn2nc(Br)n(C)c2=O)c1Cl` [IV-9], the logP entry was “m.p.: 164 °C logP = 2.18^a)”.

With `CCOC(=O)c1ccc(C(F)(F)F)cc1Cn1nc(OCC(F)(F)F)n(C)c1=O` [IV-93], the logP entry is “logP = 3.45^a)”.

On to `COC(=O)c1ccc(Cl)c(Cn2nc(OC)n(C)c2=O)c1Cl` [IV-6], for which the logP result was “m.p.: 121 °C logP = 2.04^a)”.

For the compound `CCOC(=O)c1ccc(Br)cc1Cn1nc2n(c1=O)CCC2` [IV-68], the logP entry is listed as “logP = 2.16^a)”.

With `CCOC(=O)c1ccc(Br)cc1CN1CCOC1=O` [IV-72], the logP result is reported as “logP = 2.36^a)”.

As for `COC(=O)c1ccc(Cl)c(Cn2ncn(C)c2=O)c1Cl` [IV-10], the logP result was “m.p.: 158 °C logP = 1.55^a)”.

On to `COC(=O)c1ccc(Cl)c(Cn2nc(N(C)C)n(C3CC3)c2=O)c1Cl` [IV-21], for which the logP result was “m.p.: 143 °C logP = 2.42^a)”.

As to `CCOC(=O)c1ccc(C(F)(F)F)cc1Cn1nc(OCC)n(C2CC2)c1=O` [IV-47], the logP result is given as “logP = 3.48^a)”.

In the case of `CCOC(=O)c1ccc(F)cc1Cn1nc(OC)n(C2CC2)c1=O` [IV-97], the logP entry is given as “logP = 2.50^a)”.

As to `CCOC(=O)c1ccc(F)cc1Cn1nc(SC)n(C)c1=O` [IV-37], the logP result is on record as “logP = 2.45^a)”.

Take `CCOc1nn(Cc2c(Cl)ccc(C(=O)OC)c2Cl)c(=O)n1C` [IV-4]: the logP entry is “m.p.: 120 °C logP = 2.38^a)”.

For `COC(=O)c1ccc(Cl)c(CN2CCN(C)C2=O)c1Cl` [IV-23], the logP entry was “logP = 1.98^a)”.

Take `CCOC(=O)c1ccc(Br)cc1Cn1nc(OCC(F)(F)F)n(C)c1=O` [IV-67]: the logP result was “logP = 3.31^a)”.

For `CCOC(=O)c1ccc(C(F)(F)F)cc1Cn1nc(Br)n(C)c1=O` [IV-119], the logP entry is “logP = 2.96^a)”.

Turning to `CCOC(=O)c1ccc(Br)cc1Cn1nc(Br)n(C)c1=O` [IV-75], the logP result is reported as “logP = 2.80^a)”.

Consider `COC(=O)c1ccc(Cl)c(Cn2nc(C)n(C)c2=O)c1Cl` [IV-13], for which the logP entry was “m.p.: 146 °C logP = 1.65^a)”.

For `COC(=O)c1ccc(Cl)c(Cn2nc(SC)n(C3CC3)c2=O)c1Cl` [IV-19], the logP result was “m.p.: 131 °C logP = 2.70^a)”.

For the compound `COC(=O)c1ccc(Cl)c(Cn2nc(C3CC3)n(C)c2=O)c1Cl` [IV-11], the logP entry is “m.p.: 106 °C logP = 2.16^a)”.

As to `CCOC(=O)c1ccc(C(F)(F)F)cc1Cn1nc(COC)n(C)c1=O` [IV-78], the logP entry was “logP = 2.60^a)”.

As for `CCOC(=O)c1ccc(C(F)(F)F)cc1Cn1nc(OC(C)C)n(C)c1=O` [IV-70], the logP result is reported as “logP = 3.51^a)”.

For `CCOC(=O)c1ccc(Br)cc1Cn1nc(C)oc1=O` [IV-73], the logP entry was “logP = 2.88^a)”.

`CCCOc1nn(Cc2cc(F)ccc2C(=O)OCC)c(=O)n1C` [IV-95]: the logP entry is “logP = 2.96^a)”.

In the case of `CCOC(=O)c1ccc(C(F)(F)F)cc1Cn1nc(N(C)C)n(C)c1=O` [IV-85], the logP result was “logP = 2.79^a)”.

Regarding `CCOC(=O)c1ccc(C(F)(F)F)cc1Cn1cnn(C)c1=O` [IV-74], the logP result is on record as “logP = 2.68^a)”.

Turning to `CCOC(=O)c1ccc(Br)cc1Cn1nc2n(c1=O)CCCC2` [IV-69], the logP result is given as “logP = 2.41^a)”.

`CCCOC(=O)c1ccc(C(F)(F)F)cc1Cn1nc(OCC)n(C2CC2)c1=O` [IV-50]: the logP entry is on record as “logP = 3.91^a)”.

In the case of `CCOc1nn(Cc2cc(C(F)(F)F)ccc2C(=O)OC)c(=O)n1C` [IV-117], the logP result is given as “logP = 2.74^a)”.
